Measured values: patent US20170266266A1, “Functions of 55 Newfound Proteins and Their Medicinal Application in the Treatment and Prevention of Disease” (priority 2012, published 2017)
Read-outs that look alike come from different tables or passages of the source.

Key:
[1] = tested on: atherosclerosis in ApoE knock out mouse on high fat diet
Description: 10 ApoE ko mice were fed with regular chow diet and used as negative control group. 50 ApoE ko mice were fed with high fat diet (35% kcal fat, 1% cholesterol) for 8 weeks, and then the plasma samples were collected for lipid profile measurement before the treatment. 50 ApoE ko mice were assigned into 5 groups based on the fasting overnight plasma TC and HDL level.
5.2. Study Timeline: • 23 Dec. 2011: 60 ApoE mice arrived at chempartner and were housed in the animal facility in the building #3 for the acclimation. • 6 Jan. 2012: Measured the body weight for each mouse. 50 mice were fed with high fat diet and 10 mice were fed with normal chow diet. • 2 Mar. 2012: All mice were fasted over night and plasma samples (about 300 ul whole blood) were collected for lipid profile measurement before treatment with RAAS antibody. • 19 Mar. 2012 to 6 Apr. […] 2012: All mice were fasted over night and plasma sample for each mouse (about 300 ul whole blood) was collected for lipid profile measurement after 16 weeks treatment. Blood glucose was also measured for each mouse. • 9 Jul. 2012: The study was terminated after 16 weeks treatment. Measure BW, sacrificed each mouse, dissected the aorta, heart, liver and kidney and fixed them in 4% PFA.
Antibody products were administrated by intraperitoneal injection every two days (Monday, Wednesday, and Friday). and the positive compound was administered by p.o every day.
The body weight was weighed weekly during the period of treatment. The fasting overnight blood glucose was measured at the end of study by Roche glucometer.
About 300 ul of blood sample was collected from the orbital vein for each mouse and centrifuged at 7000 rpm for 5 min at 4E and the plasma lipid profile was measured by Roche Modular automatic biochemistry analyzer in DaAn Medical Laboratory
After RAAS antibody products treatment for 16 weeks, all mice were sacrificed. Measured body weight and collected blood sample for each mouse. Weighed liver weight and saved a tiny piece of liver into 4% paraformaldehyde (PFA) fixation solution for further analysis. At same time, take the photos with heart, lung, aortas and two kidneys.
5.8. Oil Red Staining Procedure: • 1. Sacrificed the mice and dissected the heart, aorta, and arteries under dissecting microscope. • 2. Briefly wash with PBS and fixed in 4% paraformaldehyde (PFA) overnight at 4[…]. • 3. Rinse with 60% isopropanol • 4. Stain with freshly prepared Oil Red O working solution 10 min. • 1). Oil red O stock stain: 0.5% powder in isopropanol • 2). Working solution: dilute with distilled water (3:2) and filter with membrane (0.22 um) • 5. Rinse with 60% isopropanol 10 second. • 6. Dispel the adherent bit fat outside of the aorta under the dissecting microscope. • 7. Cut the vascular wall gently and keep the integrated arteries using the micro scissors. • 8. Unfold the vascular inner wall with the cover slides and fix it by water sealing tablet.
Scanning the glasses slides with the Aperio ScanScope system and analyze with the image proplus software to measure the area of atherosclerotic plaque lesion. The results were expressed as the percentage of the total aortic surface area covered by lesions. The operation procedure of software was briefly described as follow: Converted the sys version photos into JPG version, then calibrated it and subsequently selected the red regions and then calculate the total area automatically by image proplus software.
The results were expressed as the Mean±SEM and statistically evaluated by student's t-test.

[2] = tested on: fatty streak lesions in rabbits on high fat diet; format: in vivo, rabbit; settings: for TC/HDL-C: Atorvastatin group
Description: The rabbits were fasted for 12 hrs before the beginning of the experiments. Blood parameters were then tested as the normal level of plasma indicators. A total of 52 rabbits were purchased at different time, four of them were used as normal control and fed with normal diet the whole time during the experiments. […] Plasma concentrations of total cholesterol (TC), […] (TG), low density lipoprotein-cholesterol (LDL-C), very low density lipoprotein-cholesterol (VLDL-C), high density lipoprotein-cholesterol (HDL-C) were quantified by enzymatic assays. TC/HDL-C or ([…] ratios were then determined. Animals were sacrificed under deep anesthesia with sodium pentobarbital 25 mg/kg IV. The entire aorta from the aortic valve to the iliac bifurcation was removed from each rabbit and opened longitudinally. […] Atheromatous lesions were measured without staining Atheromatous lesions were manually traced in the photographs, and the percent area of the atheromatous lesions was calculated. Sample of aorta from animals were homogenated. And the content of lipid was determined.

[3] = tested on: atherosclerosis in New Zealand white rabbit on high fat diet; settings: rabbit, in vivo
Description: New Zealand rabbits were adopted in this animal study and divided into 5 groups. They were high dose, medium dose and low dose of treatment, positive and vehicle control. The treatment groups were given APOAI via auricular vein once a week. […] Positive controls were given Liptor daily by p.o. with a dose of 0.45 mg/kg body weight. […] The study duration was 19 weeks. At the end of study, all animals were sacrificed. […] Lipid content was examined in liver and aorta. And liver index was also determined.
The body weight was between 1.8-2.0 kg. The animals were quarantined for 5-10 days with normal diet before study.
Animals were randomly divided into 5 groups including vehicle control, high dose, medium dose, low dose and positive control group. Ten to 14 rabbits were in one group. Each rabbit was fed with 30 gram of high fat diet followed by 120 gram of normal diet with free access to water.
The frequency of dosing was once a week. Dose was 80, 40, 20 mg/kg body weight respectively. Drug was given by intravenous injection via auricular vein with the volume of 5 mL.
5.1 body weight: body weight of each rabbit was determined once a week.
Resulted blood samples were kept still for 2 hours and then spin with 4,000 rpm for 10 min.
Abdomen cavity was opened. Whole blood was taken from heart. Heart was harvested along with 7 cm of aorta.
The aorta was dissected for 0.5 cm from aortic arch, split longitudinally and then kept in cryo-preservation tube for later lipid analysis. One piece of this sample was fixed in formalin for further pathological analysis.
The weight of liver was determined immediately. Two pieces of specimen were cut from hepatic lobe.
Resulted blood samples were kept still for 2 hours.
The aorta was dissected and opened for 7.5 cm from aortic arch longitudinally. Pictures were taken and atherosclerosis changing was analyzed.

[4] = tested on: Influenza H1N1 A/WSN/33; format: in vivo, BALB/c mice
[5] = tested on: Influenza A/Weiss/43 H1N1 in MDCK cells; experiment: microbe, parasite or virus in culture; format: cell-based
[6] = tested on: 3T3-L1 adipocytes; experiment: Glucose uptake assay; format: cell-based
Description: Study Protocol • 1. 3T3-L1 fibroblasts were cultured in DMEM containing 25 mM glucose and 10% bovine calf serum at 37 °C with 5% CO2. • 2. 3T3-L1 fibroblasts were differentiated into adipocytes 2 days post confluent with the same DMEM medium containing 1 ug/ml insulin (Sigma-Aldrich), 1 uM dexamethasone (Sigma-Aldrich), and 0.5 mM isobutyl-1-methylxanthine (Sigma-Aldrich). • 3. Media were replaced with DMEM containing 10% FBS and 1 ug/ml insulin and culture 2 days. • 4. Seed 1×10^5 3T3-L1 adipocytes to 96 wells cell culture plate (DMEM, 10% FBS, 1% PS, 1 ug/ml insulin) • 5. Before experiments, adipocytes were incubated in serum free medium for starvation overnight. • 6. Dilute each sample 100 folds (2 ul primal solution to 198 ul buffer) in corresponding buffer. Add 2 ul of sample primal solution, 100 folds diluted solution and buffer to 198 ul KRPH buffer. • 7. 3T3-L1 adipocytes were washed with KRPH buffer (5 mM Na2HPO4, 20 mM HEPES, pH 7.4, 1 mM MgSO4.1 mM CaCl2, 136 mM NaCl, […], and 1% BSA) three times, Add 90 ul/well KRPH containing human insulin and samples to assay plate, incubate for 30 min at 37[…] and 5% CO2. • 8. Add 10 ul KRPH containing 0.25 uCi 1-[3H]-2-deoxyglucose/well and 50 umol/l 2-deoxyglucose and Incubate 10 min in 95% air/5% CO2 at 37[…] • 9. The transport was stopped by rinsing the cells with cold PBS containing 10 mM glucose for three times. • 10. The adipocytes were lysed in 50 ul 10% KOH for 5 min • 11. Then the aliquots were subjected to scintillation counting using TriCap.

[7] = H1N1 + Oseltamivir, dose printed 0.2/0.4 ml/mouse

CC(C)c1c(C(=O)Nc2ccccc2)c(-c2ccccc2)c(-c2ccc(F)cc2)n1CC[C@@H](O)C[C@@H](O)CC(=O)O [Atorvastatin, reference compound]
liver weight ([1]; 40 mg/kg, 16 weeks treatment): significantly reduced
TC net change ([1]; 16 week treatment): not reduce the TC net change
net change of LDL ([1]; 16 week treatment): no significant difference in net change of LDL
plaque area and percentage of plaque area in total inner vascular area ([1]; 16 weeks): mild trend to decrease percentage of plaque area
plaque lesion area of aorta ([1]; 16 weeks treatment, atorvastatin 40 mg/kg): did not affect the plaque lesion area of aorta
lipid con. at dissected aorta ([2]; Atorvastatin group (n = 4), triglyceride content): 0.0274 ± 0.006 µmol/mg
TC/HDL-C ([2]; Wk 0 (start of high fat diet)): 1.844
TC/HDL-C ([2]; Wk 10 (before Atorvastatin administration)): 4.511
TC/HDL-C ([2]; Wk 18 (end of Atorvastatin administration)): 6.811

CC(C)c1c(C(=O)Nc2ccccc2)c(-c2ccccc2)c(-c2ccc(F)cc2)n1CC[C@@H](O)C[C@@H](O)CC(=O)O [Liptor, reference compound]
calcification, pathological examination [3]: one animal with calcification

CCOC(=O)C1=C[C@@H](OC(CC)CC)[C@H](NC(C)=O)[C@@H](N)C1 [Osletamivir, Oseltamivir]
mice survived to the end of experiment ([4]; 1 mg/kg orally twice daily for 8 days): 4 out of 5
Mean day to death ± S.D. [4, 7]: >14 ± 0.0 days
Survivor/total [4, 7]: 4/4
body weight drop ([4]; mouse, in vivo): < 15%
EC50 ([5]; A/Weiss/43 H1N1, MDCK cells, read-out: EC50): 890 nM
EC50 ([5]; Influenza A/Weiss/43 H1N1 in MDCK cells, MTT after 72 hours, positive control, read-out: anti H1N1 EC50s): 890 nM

insulin
EC50 ([6]; dose response AFOD 1 / AFOD RAAS 109, run N1): 7.08 nM
EC50 ([6]; dose response AFOD 1 / AFOD RAAS 109, run N2): 8.64 nM
EC50 ([6]; dose response AFOD RAAS 107 / AFOD KH, run N1): 3.09 nM
EC50 ([6]; dose response AFOD RAAS 107 / AFOD KH, run N2): 10.2 nM
EC50 ([6]; dose response AFOD RAAS 107 / AFOD KH, run N3): 4.17 nM
